Laboratory results published in PubChem BioAssay (NCI).
Values joined by “and” are separate entries in the source; they are usually repeats but may differ in a detail not shown here. Equal values may be shown once.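 48-hour exposure; five concentrations; linearly interpolated endpoints. The concentration for 50% growth inhibition is given as GI50. TGI denotes the concentration required for complete inhibition of growth.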

Tests used:
Assay in all cases: DTP human tumour cell line panel, 48 h
[1] = tested on: HCC-2998 colon
[2] = tested on: 786-0 renal
[3] = tested on: SK-MEL-2 melanoma
[4] = tested on: HT29 colon
[5] = tested on: TK-10 renal
[6] = tested on: BT-549 breast
[7] = tested on: HL-60(TB) leukemia
[8] = tested on: OVCAR-8 ovarian
[9] = tested on: SF-539 CNS
[10] = tested on: M14 melanoma
[11] = tested on: PC-3 prostate
[12] = tested on: A498 renal
[13] = tested on: UACC-62 melanoma
[14] = tested on: RXF 393 renal
[15] = tested on: MOLT-4 leukemia
[16] = tested on: NCI-H522 lung
[17] = tested on: NCI-H23 lung
[18] = tested on: COLO 205 colon
[19] = tested on: SK-MEL-28 melanoma
[20] = tested on: SK-OV-3 ovarian
[21] = tested on: SW-620 colon
[22] = tested on: SR leukemia
[23] = tested on: MDA-MB-231 breast
[24] = tested on: SK-MEL-5 melanoma
[25] = tested on: OVCAR-3 ovarian
[26] = tested on: MCF7 breast
[27] = tested on: T-47D breast
[28] = tested on: SNB-19 CNS
[29] = tested on: CCRF-CEM leukemia
[30] = tested on: HOP-62 NSCLC
[31] = tested on: LOX IMVI melanoma
[32] = tested on: MDA-MB-435
[33] = tested on: OVCAR-5 ovarian
[34] = tested on: U251 CNS
[35] = tested on: NCI-H460 lung
[36] = tested on: HOP-92 NSCLC
[37] = tested on: HCT-15 colon
[38] = tested on: NCI/ADR-RES ovarian
[39] = tested on: ACHN renal
[40] = tested on: DU-145 prostate
[41] = tested on: KM12 colon
[42] = tested on: UO-31 renal
[43] = tested on: HS 578T breast
[44] = tested on: MALME-3M melanoma
[45] = tested on: SF-295 CNS
[46] = tested on: SF-268 CNS
[47] = tested on: EKVX NSCLC
[48] = tested on: NCI-H226 lung
[49] = tested on: IGROV1 ovarian
[50] = tested on: UACC-257 melanoma
[51] = tested on: OVCAR-4 ovarian
[52] = tested on: A549 NSCLC
[53] = tested on: CAKI-1 renal
[54] = tested on: K-562 leukemia
[55] = tested on: SN12C renal
[56] = tested on: HCT-116 colon
[57] = tested on: RPMI-8226 leukemia
[58] = tested on: SNB-75 CNS

COc1cc(C2C3=C(COC3=O)N(CCO)c3cc4c(cc32)OCO4)cc(OC)c1OC (stereo not drawn)
GI50 [1]: 697 nM and 702 nM | TGI [1]: 6210 nM and 5110 nM | GI50 [2]: 474 nM and 754 nM | TGI [2]: 12500 nM and > 16800 nM | GI50 [3]: 298 nM and 979 nM | GI50 [4]: 403 nM and 585 nM | TGI [4]: 1940 nM and 2030 nM | GI50 [5]: 1240 nM and 2730 nM | TGI [5]: 12500 nM and > 16800 nM | GI50 [6]: 4330 nM and 834 nM | TGI [6]: 12500 nM and 9330 nM | GI50 [7]: 343 nM and 629 nM | GI50 [8]: 427 nM and 770 nM | TGI [8]: 12500 nM and > 16800 nM | GI50 [9]: 323 nM and 434 nM | TGI [9]: 947 nM and 3010 nM | GI50 [10]: 311 nM and 363 nM | TGI [10]: 926 nM and 1380 nM | GI50 [11]: 611 nM and 612 nM | TGI [11]: 12500 nM and > 16800 nM | GI50 [12]: 257 nM and 407 nM | TGI [12]: 1070 nM and 8820 nM | GI50 [13]: 1000 nM and 565 nM | TGI [13]: 12500 nM and > 16800 nM | GI50 [14]: 176 nM and 337 nM | TGI [14]: 501 nM and 931 nM | GI50 [15]: 675 nM and 4390 nM | TGI [15]: 12500 nM and > 16800 nM | GI50 [16]: 173 nM and 260 nM | TGI [16]: 666 nM and 1250 nM | GI50 [17]: 412 nM and 574 nM | TGI [17]: 2460 nM and > 16800 nM | GI50 [18]: 360 nM and 332 nM | TGI [18]: 1020 nM and 765 nM | GI50 [19]: 706 nM and 1080 nM | TGI [19]: 12500 nM and > 16800 nM | GI50 [20]: 456 nM and 491 nM | TGI [20]: 7710 nM and > 16800 nM | GI50 [21]: 439 nM and 697 nM | TGI [21]: 12500 nM and > 16800 nM | GI50 [22]: 323 nM | TGI [22]: > 16800 nM | GI50 [23]: 971 nM and 1600 nM | TGI [23]: 12500 nM and > 16800 nM | GI50 [24]: 359 nM and 561 nM | TGI [24]: 2460 nM and 4350 nM | GI50 [25]: 244 nM and 319 nM | TGI [25]: 542 nM and 668 nM | GI50 [26]: 409 nM and 426 nM | TGI [26]: 12500 nM and > 16800 nM | GI50 [27]: 474 nM | TGI [27]: 12500 nM | GI50 [28]: 408 nM and 720 nM | TGI [28]: 6650 nM and > 16800 nM | GI50 [29]: 473 nM and 802 nM | TGI [29]: 12500 nM and > 16800 nM | GI50 [30]: 779 nM and 738 nM | TGI [30]: 12500 nM and > 16800 nM | GI50 [31]: 976 nM | TGI [31]: > 16800 nM | GI50 [32]: 175 nM and 151 nM | TGI [32]: 592 nM and 616 nM | GI50 [33]: 1660 nM and 500 nM | TGI [33]: 12500 nM and > 16800 nM | GI50 [34]: 500 nM and 631 nM | TGI [34]: 12500 nM and > 16800 nM | GI50 [35]: 438 nM and 542 nM | TGI [35]: 12500 nM and 3400 nM | GI50 [36]: 6020 nM and 5990 nM | TGI [36]: 12500 nM and > 16800 nM | GI50 [37]: 1520 nM and 1130 nM | TGI [37]: 12500 nM and > 16800 nM | GI50 [38]: 3920 nM and 14800 nM | TGI [38]: 12500 nM and > 16800 nM | GI50 [39]: 1090 nM and 925 nM | TGI [39]: 12500 nM and > 16800 nM | GI50 [40]: 342 nM and 550 nM | TGI [40]: 1020 nM and 2590 nM | GI50 [41]: 334 nM and 462 nM | TGI [41]: 2310 nM and 8860 nM | TGI [42]: 12500 nM and > 16800 nM | GI50 [43]: 276 nM and 268 nM | GI50 [44]: 532 nM and 745 nM | TGI [44]: 12500 nM and > 16800 nM | GI50 [45]: 537 nM and 235 nM | GI50 [46]: 321 nM and 872 nM | TGI [46]: 2050 nM and > 16800 nM | GI50 [47]: 6650 nM and 1030 nM | TGI [47]: 12500 nM and > 16800 nM | GI50 [48]: > 12500 nM and 2940 nM | TGI [48]: > 16800 nM | GI50 [49]: 328 nM and 625 nM | TGI [49]: 1970 nM and 6300 nM | TGI [50]: 12500 nM and > 16800 nM | GI50 [51]: 706 nM and 987 nM | TGI [51]: 12500 nM and > 16800 nM | GI50 [52]: 595 nM and 1060 nM | TGI [52]: 12500 nM and > 16800 nM | GI50 [53]: 8660 nM and 2390 nM | TGI [53]: 12500 nM and > 16800 nM | GI50 [54]: 406 nM and 489 nM | TGI [54]: 12500 nM and > 16800 nM | GI50 [55]: 1250 nM and 1130 nM | TGI [55]: 12500 nM and > 16800 nM | GI50 [56]: 468 nM and 524 nM | TGI [56]: 12500 nM and 13800 nM | GI50 [57]: 521 nM and 715 nM | TGI [57]: 12500 nM and > 16800 nM | GI50 [58]: 514 nM and 251 nM | TGI [58]: 12500 nM and > 16800 nM

O=C(/C=C/c1ccc2ccccc2c1)NCc1ccc(C(=O)NCc2ccccc2)cc1
TGI [1]: > 100000 nM | TGI [2]: > 100000 nM | TGI [3]: > 100000 nM | TGI [4]: > 100000 nM | TGI [5]: > 100000 nM | TGI [6]: > 100000 nM | TGI [7]: 38800 nM | TGI [8]: > 100000 nM | TGI [9]: > 100000 nM | TGI [10]: > 100000 nM | TGI [11]: > 100000 nM | TGI [12]: > 100000 nM | TGI [13]: > 100000 nM | TGI [14]: > 100000 nM | TGI [15]: > 100000 nM | TGI [16]: > 100000 nM | TGI [17]: > 100000 nM | TGI [18]: > 100000 nM | TGI [19]: > 100000 nM | TGI [20]: > 100000 nM | TGI [21]: > 100000 nM | TGI [22]: > 100000 nM | TGI [23]: > 100000 nM | TGI [24]: > 100000 nM | TGI [25]: > 100000 nM | TGI [26]: > 100000 nM | TGI [27]: > 89600 nM | TGI [28]: > 100000 nM | TGI [29]: > 100000 nM | TGI [30]: 52900 nM | TGI [31]: > 100000 nM | TGI [32]: > 100000 nM | TGI [33]: > 100000 nM | TGI [34]: > 100000 nM | TGI [35]: > 100000 nM | TGI [36]: > 100000 nM | TGI [37]: > 100000 nM | TGI [38]: > 100000 nM | TGI [39]: > 100000 nM | TGI [40]: > 100000 nM | TGI [41]: > 100000 nM | TGI [42]: > 100000 nM | TGI [43]: > 100000 nM | TGI [44]: > 100000 nM | TGI [45]: > 100000 nM | TGI [46]: > 100000 nM | TGI [47]: > 100000 nM | TGI [48]: 86800 nM | TGI [49]: > 100000 nM | TGI [50]: > 100000 nM | TGI [51]: > 100000 nM | TGI [52]: > 100000 nM | TGI [53]: > 73100 nM | TGI [54]: > 31600 nM | TGI [55]: > 100000 nM | TGI [56]: > 100000 nM | TGI [57]: > 100000 nM | TGI [58]: 71100 nM
